The structures appear in SMILES notation.

Data set [1] deals with doxorubicin induced cardiomyopathy. The data set is described as follows: doxorubicin induced cardiomyopathy in mice, one cycle (Set A), echocardiography. It counts as in vivo, male C57bl6J mice. On the procedure: FIG. 1 illustrates schematically the design of a study in which male C57bl6J mice received 15 mpk cumulative dose of doxorubicin in 7 doses of 2.15 mpk administered daily over study days 1-7. A 15-PGDH inhibitor, (+) SW033291, was administered by oral gavage at a dose of 25 mpk twice daily over study days 1-14, as a solution in a vehicle of 10% ethanol and 90% soybean oil. Cardiac ejection fraction was determined by echocardiography on study days 14 and 28.
FIG. 2 illustrates a graph showing cardiac ejection fraction at study day 1, at the start of the experiment, at study day 14 and at study day 28. Black bars show measurement in control mice receiving either oral saline or oral vehicle. Blue bars show results in doxorubicin treated mice receiving oral vehicle. Red bars show results in doxorubicin treated mice also receiving (+) SW033291. Doxorubicin treated mice receiving oral vehicle (blue bars) show a 10% decrease in ejection fraction on day 14 and day 28 as compared to non-doxorubicin treated control mice receiving vehicle only for 14 days. In contrast, mice treated with both doxorubicin and (+) SW033291 only a 2% (day 14) or 1.5% (day 28) decrease in ejection fraction. The difference in ejection fraction in doxorubicin treated mice receiving or not receiving (+) SW033291 was statiscally significant (P<0.05) on both days 14 and 28.

The subject of the next data set is cardiac myocytes. The data set is described as follows: DNA damage in cardiac myocytes, gamma-H2AX immunostaining. It counts as in vivo. To be noted: doxorubicin treated mice.
Data set [2] relates to doxorubicin induced cardiomyopathy. Briefly: doxorubicin induced cardiomyopathy in mice, 2 consecutive cycles of doxorubicin (Set B). It counts as in vivo.
Another data set has as its target T1, cardiac 15-PGDH (Mus musculus, UniProt Q8VCC1).
T1 construct: from tissue; host or cells: mouse heart (male C57bl6J mice are named for the study design)
T1 sequence (Q8VCC1 1-269): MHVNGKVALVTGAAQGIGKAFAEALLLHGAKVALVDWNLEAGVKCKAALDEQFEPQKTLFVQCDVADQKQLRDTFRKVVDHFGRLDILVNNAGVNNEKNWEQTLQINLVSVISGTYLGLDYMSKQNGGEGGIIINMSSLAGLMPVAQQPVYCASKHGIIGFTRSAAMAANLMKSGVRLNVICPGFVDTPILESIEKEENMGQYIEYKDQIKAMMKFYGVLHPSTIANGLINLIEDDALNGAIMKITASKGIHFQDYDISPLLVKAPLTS
Briefly: cardiac 15-PGDH activity and cardiac PGE2 after oral dosing of mice. It counts as in vivo.

The subject of data set [3] is PGE2 production by cell lines. The data set is described as follows: PGE2 production by cell lines. It counts as cell-based.
A short description of data set [4]: chemical stability in aqueous solutions. The settings on record: over broad pH range. It counts as physicochemical.
Data set [5] in a line: stability on incubation with hepatocyte extracts. It counts as in vitro ADME.
The nature of data set [6]: stability on incubation with hepatocyte cell lines. It counts as in vitro ADME.
In a further data set the test system is mice. The data set is described as follows: toxicity after IP injection into mice.
The target of the next data set is T2, recombinant 15-PGDH (Homo sapiens, UniProt P15428).
T2 sequence (P15428 1-266): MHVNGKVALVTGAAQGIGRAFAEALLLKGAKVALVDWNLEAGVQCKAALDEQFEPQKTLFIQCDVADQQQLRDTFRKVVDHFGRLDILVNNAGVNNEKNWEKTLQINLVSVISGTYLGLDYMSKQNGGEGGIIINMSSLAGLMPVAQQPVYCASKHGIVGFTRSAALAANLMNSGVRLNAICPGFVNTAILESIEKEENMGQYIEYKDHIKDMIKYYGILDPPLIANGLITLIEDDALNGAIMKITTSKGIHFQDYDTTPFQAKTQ
Briefly: inhibition of recombinant 15-PGDH. It counts as biochemical.

Data set [7] can be described thus: stability on incubation with mouse liver extracts. It counts as in vitro ADME.
The nature of data set [8]: stability on incubation with rat liver extracts. It counts as in vitro ADME.
A short description of data set [9]: stability on incubation with human liver extracts. It counts as in vitro ADME.
The mark [10] stands for this setting: day 42, after two cycles of doxorubicin, versus vehicle control.

Take `COc1cccc2c1C(=O)c1c(O)c3c(c(O)c1C2=O)C[C@@](O)(C(=O)CO)C[C@@H]3O[C@H]1C[C@H](N)[C@H](O)[C@H](C)O1` [doxorubicin, reference compound]: the “decrease in ejection fraction” value in [1] (day 14, doxorubicin 15 mpk cumulative plus oral vehicle, compared to non-doxorubicin treated control mice) turned out to be 10%; in data set [1] (day 28, doxorubicin 15 mpk cumulative plus oral vehicle, compared to non-doxorubicin treated control mice), 10%. For the same compound, the “DNA damage in cardiac myocytes, gamma-H2AX immunostaining” value in the data set with cardiac myocytes is “induction of DNA damage”.

As to `CCCC[S+]([O-])c1sc2nc(-c3cccs3)cc(-c3ccccc3)c2c1N` (single isomer, unassigned; (+)) [(+) SW033291], the “ejection fraction (EF %), extended follow-up” value in [1] (Set A, follow-up to day 56) is given as “maintenance of improvement in ejection fraction”. Further, in [1] (day 14, doxorubicin treated mice, 25 mpk oral gavage twice daily days 1-14), the “decrease in ejection fraction” value is 2%. Further, the “decrease in ejection fraction” value in [1] (day 28, doxorubicin treated mice, 25 mpk oral gavage twice daily days 1-14) is 1.5%. For the same compound, the “prevention of doxorubicin induced cardiomyopathy” value in data set [1] (mice) is “prevented doxorubicin induced cardiomyopathy”. The “cardiac contractility, echocardiogram” value in data set [1] (study day 14, doxorubicin treated mice, versus oral vehicle) is recorded as “markedly greater cardiac contractility”. Also, in data set [2] (day 14, following the first cycle of doxorubicin), the ejection fraction result is on record as “improvement of ejection fraction”. For the same compound, in data set [2] (setting [10]), the “atrial natriuretic factor, real-time PCR in cardiac tissue” value is given as “lower levels of atrial natriuretic factor”; the “expression of connective tissue growth factor, real-time PCR in cardiac tissue” value is recorded as “lower levels of expression of connective tissue growth factor”; the lung weight result is recorded as “lesser lung weight”; the ventricular weight result was “lesser ventricular weight”. In addition, the total body weight result in data set [2] (day 42, after two cycles of doxorubicin, versus vehicle treated mice) was “greater total body weight”. Also, the ejection fraction result in [2] (day 42, following the second cycle of doxorubicin) was “improvement of ejection fraction”. In addition, the “inhibition of activity of cardiac 15-PGDH” value at cardiac 15-PGDH (25 mpk oral, starting at 30 minutes, persisting for 3 hours after administration) is “approximately 80%”. For the same compound, at cardiac 15-PGDH (6 hours after drug treatment), the “cardiac PGE2” value is “increased cardiac PGE2”.

In the case of `CCCC[S+]([O-])c1sc2nc(-c3cccs3)cc(-c3ccccc3)c2c1N` (stereo not shown) [formula (IX)], the “PGE2 production by cell lines” value in data set [3] was “increase PGE2 production”. Moreover, the “chemical stability in aqueous solutions” value in [4] is on record as “chemically stable”. Moreover, the “chemical stability when incubated with hepatocyte extracts” value in [5] is “chemically stable”. Moreover, the “chemical stability when incubated with hepatocyte cell lines” value in data set [6] is on record as “chemically stable”. Further, in the data set with mice (IP into mice at 0.3 μmole/per mouse twice daily for 21 days), the toxicity entry is listed as “no toxicity”. Besides, the “immediate toxicity over 24 hours” value in the data set on mice (IP into mice at 0.6 μmole/per mouse) and in the data set with mice (IP into mice at 1.2 μmole/per mouse) was “no immediate toxicity” each time.

On to `CCCC[S+]([O-])c1sc2nc(-c3nccs3)cc(-c3cnc(C)n3C)c2c1N` (stereo not shown) [formula (X)], for which the “concentration at which recombinant 15-PGDH is inhibited” value on recombinant 15-PGDH stood at 3 nM. The “concentration at which PGE2 production by cell lines is increased” value in data set [3] worked out at 20 nM. In addition, in data set [4], the “chemical stability in aqueous solutions” value is reported as “chemically stable”. Also, the “chemical stability when incubated with liver extracts” value in [7], in [8] and in data set [9] was “chemically stable” throughout. Further, the “immediate toxicity over 24 hours” value with mice (IP into mice at 50 mg/kg body weight) was “no immediate toxicity”.

The record behind these values is patent publication US11426420B2, “Inhibitors of short-chain dehydrogenase activity for treating coronary disorders” (CASE WESTERN RESERVE UNIVERSITY, priority 2017, dated 2022).
